According to patent US8987314B2, “Amide, urea or sulfone amide linked benzothiazole inhibitors of endothelial lipase” (Bristol-Myers Squibb Company, priority 2012, dated 2015):

How the values were obtained:
[1] = target: Endothelial lipase (EL) (Homo sapiens (Human), UniProt Q9Y5X9); test: EL assay: endothelial lipase activity with fluorescent substrate A10070 in DMPG vesicles; assay type: biochemical
Method in brief: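 Vesicles prepared: A10070 dried with DMPG, resuspended in HEPES pH 8.0/NaCl/EDTA, sonicated on ice. Enzyme incubated with compound 30 min at 37° C. Reaction started with 1:10 diluted vesicles. Fluorescence (490/530 nm) followed 60 min; slope from 300–900 secs gives rate.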

[2] = target: hepatic lipase (HL) (Homo sapiens (Human), UniProt P11150); test: HL assay: hepatic lipase activity with fluorescent substrate A10070 in DMPG vesicles; assay type: biochemical
Sequence of hepatic lipase (HL) (P11150 23-499, species assumed): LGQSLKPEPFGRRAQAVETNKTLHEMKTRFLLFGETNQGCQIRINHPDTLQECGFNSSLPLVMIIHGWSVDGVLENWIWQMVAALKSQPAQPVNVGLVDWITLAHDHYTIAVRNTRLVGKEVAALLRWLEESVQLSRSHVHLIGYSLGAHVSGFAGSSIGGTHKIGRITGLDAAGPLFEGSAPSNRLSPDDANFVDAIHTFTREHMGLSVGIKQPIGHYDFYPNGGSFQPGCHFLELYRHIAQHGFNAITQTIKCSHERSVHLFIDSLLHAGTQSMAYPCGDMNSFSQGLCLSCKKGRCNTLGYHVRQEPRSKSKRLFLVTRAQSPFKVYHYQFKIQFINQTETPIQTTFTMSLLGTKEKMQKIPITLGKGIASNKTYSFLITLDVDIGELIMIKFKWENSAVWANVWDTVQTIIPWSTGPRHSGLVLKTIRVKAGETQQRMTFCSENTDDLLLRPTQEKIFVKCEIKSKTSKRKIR
Protocol: Endothelial lipase (EL) and hepatic lipase (HL) activities were measured using a fluorescent substrate, A10070, (Invitrogen, CA) doped into an artificial vesicle containing DMPG (Avanti Polar Lipids) as the excipient. Vesicles were prepared by combining 571 μL of 29 mM DMPG in a 1:1 mixture of MeOH and CHCl3 with 2000 μL of 1 mM A10070 in a 1:1 mixture of MeOH and CHCl3. The mixture was dried under nitrogen in multiple vials then resuspended in 20 mL total volume of 50 mM HEPES pH 8.0 buffer containing 50 mM NaCl and 0.2 mM EDTA. The sample was allowed to sit at room temperature for 15 min and then was sonicated 3×4 mins on ice with a Branson Sonicator using duty cycle 1. This preparation provides vesicles with a mole fraction of 0.11 for the FRET substrate.
The enzymatic assay was measured using 384-well white Optiplates. Each well contained 20 μL of assay buffer (50 mM HEPES pH 8.0, 50 mM NaCl and 1 mM CaCl2) and 0.25 μL of a DMSO solution containing a compound of interest. EL or HL (10 μL) was added and allowed to incubate with the compound for 30 min at 37° C. The source of EL was conditioned media obtained from HT-1080 cells that were transformed using RAGE technology (Athersys) to overexpress endogenous EL, and HL was partially purified from conditioned media obtained from COS cells overexpressing HL. The reaction was started by the addition of 10 μL of a 1:10 dilution of vesicles. The final total reaction volume was […]. The reaction rates were measured on a Gemini plate reader with an excitation wavelength of 490 nm and an emission wavelength of 530 nm. Readings were taken over a period of 60 minutes, and the slope between 300 and 900 secs of the readout was used to calculate the rate of the reaction.

Sequence of Endothelial lipase (EL) (Q9Y5X9 21-500): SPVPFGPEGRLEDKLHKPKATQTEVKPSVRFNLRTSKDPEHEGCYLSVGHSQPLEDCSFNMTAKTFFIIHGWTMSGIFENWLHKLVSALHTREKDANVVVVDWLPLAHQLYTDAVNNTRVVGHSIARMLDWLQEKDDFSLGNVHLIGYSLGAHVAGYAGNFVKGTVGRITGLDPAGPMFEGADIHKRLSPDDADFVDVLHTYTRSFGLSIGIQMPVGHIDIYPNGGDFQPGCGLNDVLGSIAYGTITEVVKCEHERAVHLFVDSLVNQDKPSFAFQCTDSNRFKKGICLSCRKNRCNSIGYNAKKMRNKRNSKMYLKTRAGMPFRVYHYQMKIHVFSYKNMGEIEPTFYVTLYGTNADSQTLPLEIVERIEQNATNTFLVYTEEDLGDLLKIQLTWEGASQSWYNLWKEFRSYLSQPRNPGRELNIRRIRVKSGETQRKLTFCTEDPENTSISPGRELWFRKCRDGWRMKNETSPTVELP

| IC50 [1] [nM] | IC50 [2] [nM] | SMILES |
| --- | --- | --- |
| < 10 | 61 | NS(=O)(=O)CCNC(=O)C(c1nc2ccc(-c3ccc(CCO)cc3)cc2s1)S(=O)(=O)CC1CC1 (stereo not drawn) [Example B60, 2-((cyclopropylmethyl)sul-fonyl)-2-(6-(4-(2-hydroxyethyl)phenyl)-1,3-benzothiazol-2-yl)-N-(2-sulfamoylethyl)acetamide] |
| < 10 | 50 | CN1CCOc2cc(-c3ccc4nc(C(C(=O)NCCS(N)(=O)=O)S(C)(=O)=O)sc4c3)ccc21 (stereo not drawn) [Example B61, 2-(6-(4-methyl-3,4-dihydro-2H-1,4-benzoxazin-7-yl)-1,3-benzothiazol-2-yl)-2-(methylsulfonyl)-N-(2-sulfamoylethyl)acetamide] |
| 1.2 | 1 | CS(=O)(=O)C(C(=O)NCCS(N)(=O)=O)c1nc2ccc(-c3cccc(N4CCCC4)c3)cc2s1 (stereo not drawn) [Example B62, 2-(methylsulfonyl)-2-(6-(3-(1-pyrrolidinyl)phenyl)-1,3-benzothiazol-2-yl)-N-(2-sulfamoylethyl)a-cetamide] |
| 0.5 | 2.6 | COCc1ccc(-c2ccc3nc(C(C(=O)NCCS(N)(=O)=O)S(C)(=O)=O)sc3c2)cc1 (stereo not drawn) [Example B63, 2-(6-(4-(methoxymethyl)phen-yl)-1,3-benzothiazol-2-yl)-2-(methylsulfonyl)-N-(2-sulfamoylethyl)a-cetamide] |
| 0.5 | 1.9 | COCCOC(=O)Nc1ccc(-c2ccc3nc(C(C(=O)NCCS(N)(=O)=O)S(C)(=O)=O)sc3c2)cc1 (stereo not drawn) [Example B64, 2-methoxyethyl(4-(2-(1-(methylsulfonyl)-2-oxo-2-((2-sulfamoylethyl)amino)eth-yl)-1,3-benzothiazol-6-yl)phenyl)carbamate] |
| < 10 | 61 | NS(=O)(=O)CCNC(=O)C(c1nc2ccc(-c3ccc(C(=O)NCC(F)(F)F)cc3)cc2s1)S(=O)(=O)Cc1ccc(F)cc1 (stereo not drawn) [Example B65, 4-(2-(1-((4-fluorobenzyl)sul-fonyl)-2-oxo-2-((2-sulfamoylethyl)amino)ethyl)-1,3-benzothiazol-6-yl)-N-(2,2,2-trifluoroethyl)ben-zamide] |
| < 10 | 41 | CC(C)Cn1cc(-c2ccc3nc(C(C(=O)NCCS(N)(=O)=O)S(C)(=O)=O)sc3c2)cn1 (stereo not drawn) [Example B67, 2-[6-(1-isobutyl-1H-pyrazol-4-yl)-1,3-benzothiazol-2-yl]-2-(methylsulfonyl)-N-(2-sulfamoylethyl)acetamide] |
| < 10 | < 10 | CS(=O)(=O)C(C(=O)NCCS(N)(=O)=O)c1nc2ccc(-c3cnn(Cc4ccccc4)c3)cc2s1 (stereo not drawn) [Example B68, 2-[6-(1-benzyl-1H-pyrazol-4-yl)-1,3-benzothiazol-2-yl]-2-(methylsulfonyl)-N-(2-sulfamoylethyl)a-cetamide] |
| < 10 | 612 | NS(=O)(=O)CCNC(=O)C(c1nc2ccc(-c3cnn(CCN4CCOCC4)c3)cc2s1)S(=O)(=O)CCC(F)(F)F (stereo not drawn) [Example B69, 2-(6-(1-(2-(4-morpholinyl)eth-yl)-1H-pyrazol-4-yl)-1,3-benzothiazol-2-yl)-N-(2-sulfamoylethyl)-2-((3,3,3-trifluoropropyl)sul-fonyl)acetamide] |
| < 10 | < 10 | COCCS(=O)(=O)C(C(=O)NCCS(N)(=O)=O)c1nc2ccc(-c3ccc(NC(=O)OC(C)(C)C)cc3)cc2s1 (stereo not drawn) [Example B70, tert-butyl (4-(2-(1-((2-methoxyethyl)sulfonyl)-2-oxo-2-((2-sulfamoylethyl)a-mino)ethyl)-1,3-benzothiazol-6-yl)phenyl)car-bamate] |
| < 10 | < 10 | COCCS(=O)(=O)C(C(=O)NCCS(N)(=O)=O)c1nc2ccc(-c3ccc(NC(=O)OC)cc3)cc2s1 (stereo not drawn) [Example B71, methyl (4-(2-(1-((2-methoxyethyl)sulfonyl)-2-oxo-2-((2-sulfamoylethyl)a-mino)ethyl)-1,3-benzothiazol-6-yl)phenyl)car-bamate] |
| < 10 | 68 | NS(=O)(=O)CCNC(=O)C(c1nc2ccc(-c3ccnc(F)c3)cc2s1)S(=O)(=O)CCC(F)(F)F (stereo not drawn) [Example B72, 2-(6-(2-fluoro-4-pyridinyl)-1,3-benzothiazol-2-yl)-N-(2-sulfamoylethyl)-2-((3,3,3-trifluoropropyl)sulfonyl)a-cetamide] |
| < 10 | 15900 | NS(=O)(=O)CCNC(=O)C(c1nc2ccc(-c3cnn(CCN4CCOCC4)c3)cc2s1)S(=O)(=O)Cc1ccc(C(F)(F)F)cc1 (stereo not drawn) [Example B73, 2-(6-(1-(2-(4-morpholinyl)ethyl)-1H-pyrazol-4-yl)-1,3-benzothiazol-2-yl)-N-(2-sulfamoylethyl)-2-((4-(trifluoromethyl)benzyl)sul-fonyl)acetamide] |
| < 10 | < 10 | CS(=O)(=O)C(C(=O)NCCS(N)(=O)=O)c1nc2ccc(-c3cnn(-c4ccc(F)cc4)c3)cc2s1 (stereo not drawn) [Example B74, 2-(6-(1-(4-fluorophenyl)-1H-pyrazol-4-yl)-1,3-benzothiazol-2-yl)-2-(methylsulfonyl)-N-(2-sulfamoylethyl)acetamide] |
| < 10 | 25000 | NS(=O)(=O)CCNC(=O)C(c1nc2ccc(-c3cnn(CCN4CCOCC4)c3)cc2s1)S(=O)(=O)Cc1ccc(F)cc1 (stereo not drawn) [Example B75, 2-((4-fluorobenzyl)sul-fonyl)-2-(6-(1-(2-(4-morpholinyl)ethyl)-1H-pyrazol-4-yl)-1,3-benzothiazol-2-yl)-N-(2-sulfamoylethyl)acetamide] |
| < 10 | 21 | CC(C)(C)OC(=O)N1CCC(n2cc(-c3ccc4nc(C(C(=O)NCCS(N)(=O)=O)S(C)(=O)=O)sc4c3)cn2)CC1 (stereo not drawn) [Example B76, tert-butyl 4-(4-(2-(1-(methylsulfonyl)-2-oxo-2-((2-sulfamoyl-ethyl)amino)ethyl)-1,3-benzothiazol-6-yl)-1H-pyrazol-1-yl)-1-piperidinecarboxylate] |
| < 10 | 2260 | NS(=O)(=O)CCNC(=O)C(c1nc2ccc(-c3cnn(CCN4CCOCC4)c3)cc2s1)S(=O)(=O)CC1CC1 (stereo not drawn) [Example B77, 2-[(cyclopropylmethyl)sul-fonyl]-2-(6-{1-[2-(4-morpholinyl)ethyl]-1H-pyrazol-4-yl}-1,3-benzothiazol-2-yl)-N-(2-sulfamoylethyl)acetamide] |
| < 10 | 68 | CS(=O)(=O)C(C(=O)NCCS(N)(=O)=O)c1nc2ccc(-c3c[nH]nc3C(F)(F)F)cc2s1 (stereo not drawn) [Example B78, 2-(methylsulfonyl)-N-(2-sulfamoylethyl)-2-(6-(3-(trifluoromethyl)-1H-pyrazol-4-yl)-1,3-benzothiazol-2-yl)a-cetamide] |
| < 10 | < 10 | COc1cccc(-c2ccc3nc(C(C(=O)NCCS(N)(=O)=O)S(C)(=O)=O)sc3c2)c1 (stereo not drawn) [Example B79, 2-(6-(3-methoxyphenyl)-1,3-benzothiazol-2-yl)-2-(methylsulfonyl)-N-(2-sulfamoylethyl)acetamide] |
| < 10 | < 10 | Cc1nnc(CNC(=O)C(c2nc3cc(C)c(-c4ccc(F)nc4)cc3s2)S(C)(=O)=O)o1 (stereo not drawn) [Example B80, 2-[6-(6-fluoro-3-pyridinyl)-5-methyl-1,3-benzothiazol-2-yl]-N-[(5-methyl-1,3,4-oxadiazol-2-yl)methyl]-2-(methylsulfonyl)acetamide] |
| 14 | 196 | Cc1nnc(CNC(=O)C(c2nc3cc(C)c(-c4ccc(C(=O)N5CCOCC5)cc4)cc3s2)S(C)(=O)=O)o1 (stereo not drawn) [Example B81, 2-{5-methyl-6-[4-(4-morpholinylcarbonyl)phen-yl]-1,3-benzothiazol-2-yl}-N-[(5-methyl-1,3,4-oxadiazol-2-yl)methyl]-2-(methylsulfonyl)acetamide] |
| 85 | 177 | Cc1nnc(CNC(=O)C(c2nc3cc(C)c(-c4ccccc4)cc3s2)S(C)(=O)=O)o1 (stereo not drawn) [Example B82, N-((5-methyl-1,3,4-oxadiazol-2-yl)methyl)-2-(5-methyl-6-phenyl-1,3-benzothiazol-2-yl)-2-(methylsulfonyl)acetamide] |
| 77 | 229 | Cc1nnc(CNC(=O)C(c2nc3cc(C)c(-c4cnn(CCN5CCOCC5)c4)cc3s2)S(C)(=O)=O)o1 (stereo not drawn) [Example B83, 2-(5-methyl-6-(1-(2-(4-morpholinyl)ethyl)-1H-pyrazol-4-yl)-1,3-benzothiazol-2-yl)-N-((5-methyl-1,3,4-oxadiazol-2-yl)methyl)-2-(methylsulfonyl)acetamide] |
| 34 | 350 | Cc1nnc(CNC(=O)C(c2nc3cc(C)c(-c4ccc(N5CCNCC5)cc4)cc3s2)S(C)(=O)=O)o1 (stereo not drawn) [Example B84, N-((5-methyl-1,3,4-oxadiazol-2-yl)methyl)-2-(5-methyl-6-(4-(piperazin-1-yl)phenyl)-1,3-benzothiazol-2-yl)-2-(methylsulfonyl)acetamide] |
